{
  "source": "BindingDB's records for doi:10.7270/Q2ZC817P",
  "about": "(The Scripps Research Institute Molecular Screening Center, 2007)",
  "note": "Structures can show the parent of a compound that is named as a salt.",
  "data": [
    {"target": "Sphingosine 1-phosphate receptor 1 (Homo sapiens, UniProt P21453)", "sequence (P21453 whole entry)": "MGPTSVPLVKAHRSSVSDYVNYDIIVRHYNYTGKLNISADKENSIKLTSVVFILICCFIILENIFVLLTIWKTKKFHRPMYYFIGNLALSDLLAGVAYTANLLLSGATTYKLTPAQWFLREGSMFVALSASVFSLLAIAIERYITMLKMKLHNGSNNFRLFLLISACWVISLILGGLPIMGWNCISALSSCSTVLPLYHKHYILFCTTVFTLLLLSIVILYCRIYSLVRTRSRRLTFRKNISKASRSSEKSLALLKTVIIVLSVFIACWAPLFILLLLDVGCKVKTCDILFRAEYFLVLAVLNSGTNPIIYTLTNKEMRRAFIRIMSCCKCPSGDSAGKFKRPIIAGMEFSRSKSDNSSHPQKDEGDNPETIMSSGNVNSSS", "experiment": "S1P1 agonism potentiation – cell-based, potentiator mode, 60K MLSMR set, dose response (AID 466)", "conditions": "not given", "units": {"EC50": "µM"}, "values": [
      {"smiles": "COC(=O)c1c(C)n(-c2ccc(OC)cc2)c2ccc(O)cc12", "note": "[5-hydroxy-1-(4-methoxyphenyl)-2-methyl-3-indolecarboxylic acid methyl ester]", "EC50": 6.86},
      {"smiles": "O=C(CSc1nnc(-c2cc3ccccc3cc2O)n1Cc1ccco1)c1ccc(F)cc1", "note": "[(3Z)-3-[3-[2-(4-fluorophenyl)-2-oxidanylidene-ethyl]sulfanyl-4-(furan-2-ylmethyl)-1H-1,2,4-triazol-5-ylidene]naphthalen-2-one]", "EC50": 23.1},
      {"smiles": "c1ccc(CSc2nnc(-c3c[nH]c4ccccc34)o2)cc1", "EC50": 1.59},
      {"smiles": "COc1cccc(N2CCN(c3ncnc4c3[nH]c3ccccc34)CC2C)c1", "note": "(stereo not drawn) [4-[4-(3-methoxyphenyl)-3-methyl-1-piperazinyl]-5H-pyrimido[5,4-b]indole]", "EC50": 3.57},
      {"smiles": "COc1ccc2c(c1)CCc1c(C(=O)Nc3ccc(OC)c(OC)c3)noc1-2", "note": "[MLS000087452]", "EC50": 2.83},
      {"smiles": "CC1CCCC(C)N1C(=O)CN1CCN(c2nc(-c3ccc(F)cc3)cs2)CC1", "note": "(stereo not drawn) [1-(2,6-Dimethyl-piperidin-1-yl)-2-{4-[4-(4-fluoro-phenyl)-thiazol-2-yl]-piperazin-1-yl}-ethanone]", "EC50": "> 10"},
      {"smiles": "O=C(NCc1ccccc1)N1CCN(c2ccc(Cl)c(Cl)c2)CC1", "note": "[4-(3,4-dichlorophenyl)-N-(phenylmethyl)-1-piperazinecarboxamide]", "EC50": 6.67},
      {"smiles": "CCCC(=O)N1CCN(c2ccc(NC(=O)c3cc4ccccc4o3)cc2Cl)CC1", "note": "[MLS000096729]", "EC50": 8.63},
      {"smiles": "COc1ccccc1Oc1ccc2c(c1)C(=O)N(c1ccc(O)cc1)C2=O", "note": "[2-(4-hydroxyphenyl)-5-(2-methoxyphenoxy)isoindole-1,3-dione]", "EC50": 0.151},
      {"smiles": "O=C(Nc1ccc(N2CCCC2)c(Cl)c1)c1ccc(Br)o1", "note": "[5-bromanyl-N-(3-chloranyl-4-pyrrolidin-1-yl-phenyl)furan-2-carboxamide]", "EC50": 3.76},
      {"smiles": "Cc1cc(C=Nn2cnnc2)c(C)n1-c1ccc(OCc2ccc(F)cc2)cc1", "note": "[MLS000112167]", "EC50": 0.502},
      {"smiles": "COc1ccc(-n2nnnc2S(=O)(=O)CC(=O)N2CCCCC2)cc1", "note": "[2-[1-(4-methoxyphenyl)tetrazol-5-yl]sulfonyl-1-piperidin-1-ylethanone]", "EC50": 9.83},
      {"smiles": "Clc1ccc(-n2nnnc2Sc2ncnc3sccc23)cc1", "note": "[SMR000066808]", "EC50": 5.29},
      {"smiles": "CCC(NCc1ccc2c(c1)OCO2)=C1C(=O)NC(=O)N(C2CCCCC2)C1=O", "note": "[(5E)-5-[1-(1,3-benzodioxol-5-ylmethylamino)propylidene]-1-cyclohexyl-1,3-diazinane-2,4,6-trione]", "EC50": 8.66},
      {"smiles": "COc1ccc(-n2c(C)cc(C(=O)CSc3nnc(-c4cccs4)o3)c2C)cc1", "note": "[1-[1-(4-methoxyphenyl)-2,5-dimethyl-3-pyrrolyl]-2-[(5-thiophen-2-yl-1,3,4-oxadiazol-2-yl)thio]ethanone]", "EC50": 1.96},
      {"smiles": "CCOc1ccc(-c2noc(-c3ccncc3)n2)cc1OCC", "note": "[3-(3,4-diethoxyphenyl)-5-(4-pyridyl)-1,2,4-oxadiazole]", "EC50": 0.428},
      {"smiles": "O=C(Nc1nccs1)c1ccc(S(=O)(=O)NCC2CCCCC2)cc1", "note": "[4-(Cyclohexylmethyl-sulfamoyl)-N-thiazol-2-yl-benzamide]", "EC50": 7.5},
      {"smiles": "O=C(Nc1cccc(C(F)(F)F)c1)C1CCCN1S(=O)(=O)c1cccc2cccnc12", "note": "(stereo not drawn) [1-(8-quinolinylsulfonyl)-N-[3-(trifluoromethyl)phenyl]-2-pyrrolidinecarboxamide]", "EC50": 5.41},
      {"smiles": "Cc1ccc(-n2c(C)cc(C(=O)CSc3nnnn3C)c2C)cc1", "note": "[1-[2,5-dimethyl-1-(4-methylphenyl)-3-pyrrolyl]-2-[(1-methyl-5-tetrazolyl)thio]ethanone]", "EC50": 6.1},
      {"smiles": "Cc1ccc2oc(-c3ccc(NC(=O)c4cccnc4)cc3)nc2c1", "note": "[MLS000068975]", "EC50": 2.81},
      {"smiles": "O=C(c1ccc(Cl)s1)N1CCN(c2nc3ccccc3s2)CC1", "note": "[MLS000100900]", "EC50": "> 30"},
      {"smiles": "O=S1(=O)C=C(Sc2nc3ccccc3s2)c2ccccc21", "note": "[2-[(1,1-dioxido-1-benzothien-3-yl)thio]-1,3-benzothiazole]", "EC50": "> 10"},
      {"smiles": "CCc1ccc2oc(-c3cc(N)cc(C)c3O)nc2c1", "note": "[(6E)-4-amino-6-(5-ethyl-3H-1,3-benzoxazol-2-ylidene)-2-methyl-1-cyclohexa-2,4-dienone]", "EC50": 11.6},
      {"smiles": "Cc1ccc(-c2csc(N3CCC(NS(=O)(=O)c4ccc5c(c4)OCCO5)CC3)n2)cc1", "note": "[N-[1-[4-(4-methylphenyl)-1,3-thiazol-2-yl]piperidin-4-yl]-2,3-dihydro-1,4-benzodioxine-6-sulfonamide]", "EC50": 1.4},
      {"smiles": "CCC(NC(=O)Nc1nnc(C(F)(F)F)s1)(C(F)(F)F)C(F)(F)F", "EC50": "> 95"},
      {"smiles": "COc1cccc2sc(Nc3nc(-c4ccccn4)cs3)nc12", "note": "[(4-methoxy-1,3-benzothiazol-2-yl)-[4-(2-pyridyl)thiazol-2-yl]amine]", "EC50": 2.64},
      {"smiles": "OC(c1cccc(OCc2ccccc2)c1)c1nnc(-c2ccccc2)o1", "note": "(stereo not drawn) [(3-benzoxyphenyl)-(5-phenyl-1,3,4-oxadiazol-2-yl)methanol]", "EC50": 2.65},
      {"smiles": "Cc1ccc(O)c(NC(=O)CCC2CCCCC2)c1", "note": "[3-cyclohexyl-N-(2-hydroxy-5-methyl-phenyl)propionamide]", "EC50": "> 95"},
      {"smiles": "Cc1csc(NC(=O)C(Cc2ccccc2)n2cccc2)n1", "note": "(stereo not drawn) [MLS000119019]", "EC50": 2.28},
      {"smiles": "Cc1cc(-c2nnc(-c3ccccc3)c(-c3ccccc3)n2)c(C)o1", "note": "[3-(2,5-dimethyl-3-furanyl)-5,6-diphenyl-1,2,4-triazine]", "EC50": 6.75},
      {"smiles": "Cc1cccc(-n2ncc3c(N(C)C4CCCCC4)ncnc32)c1", "note": "[MLS000100814]", "EC50": "> 95"},
      {"smiles": "Fc1ccc2[nH]c3c(N4CCN(Cc5ccc6c(c5)OCO6)CC4)ncnc3c2c1", "note": "[4-[4-(1,3-benzodioxol-5-ylmethyl)-1-piperazinyl]-8-fluoro-5H-pyrimido[5,4-b]indole]", "EC50": 2},
      {"smiles": "CCc1ccc(NC(=O)c2cc(-c3ccco3)on2)cc1", "note": "[MLS000087211]", "EC50": 4.44},
      {"smiles": "Cc1cc(C(=O)CSc2nnc(-c3ccncc3)n2-c2ccccc2)c(C)n1C", "note": "[2-[(4-phenyl-5-pyridin-4-yl-1,2,4-triazol-3-yl)sulfanyl]-1-(1,2,5-trimethylpyrrol-3-yl)ethanone]", "EC50": 2.23},
      {"smiles": "COc1ccc(CCNc2ncnc3c2oc2ccccc23)cc1OC", "note": "[MLS000041708]", "EC50": 0.601},
      {"smiles": "Cc1ccc(-c2csc3ncnc(Sc4nnc(CN5CCCCCC5=O)o4)c23)cc1", "note": "[1-[[5-[5-(4-methylphenyl)thieno[2,3-d]pyrimidin-4-yl]sulfanyl-1,3,4-oxadiazol-2-yl]methyl]azepan-2-one]", "EC50": 2.6},
      {"smiles": "Cc1cc(NC(=O)c2oc3ccccc3c2C)ccc1-n1cnnn1", "note": "[3-Methyl-benzofuran-2-carboxylic acid (3-methyl-4-tetrazol-1-yl-phenyl)-amide]", "EC50": 5.53},
      {"smiles": "CC1=NC(=O)NC(c2ccc(Cl)cc2)C1C(=O)OCc1ccc2c(c1)OCO2", "note": "(stereo not drawn) [1,3-benzodioxol-5-ylmethyl 4-(4-chlorophenyl)-6-methyl-2-oxidanylidene-3,4-dihydro-1H-pyrimidine-5-carboxylate]", "EC50": "> 0.3"},
      {"smiles": "O=C(c1ccccc1)C(CCC(CN1CCOCC1)C(=O)c1ccccc1)CN1CCOCC1", "note": "(stereo not drawn) [2,5-bis(4-morpholinylmethyl)-1,6-diphenylhexane-1,6-dione;hydrochloride]", "EC50": 4.14},
      {"smiles": "CCOC(=O)/C=C/S(=O)(=O)c1ccc(NC(C)=O)cc1", "EC50": "> 10"},
      {"smiles": "CCOc1ccc(-c2nc(-c3ccccc3)no2)cc1OCC", "note": "[5-(3,4-diethoxyphenyl)-3-phenyl-1,2,4-oxadiazole]", "EC50": 0.107},
      {"smiles": "CCc1cc(-c2n[nH]cc2-c2ccc3c(c2)OCO3)c(O)cc1O", "note": "[SMR000060132]", "EC50": 6.57},
      {"smiles": "CCCc1ccc(Oc2c[nH]nc2-c2ccc(O)cc2O)cc1", "note": "[(4E)-3-hydroxy-4-[4-(4-propylphenoxy)-1,2-dihydropyrazol-3-ylidene]-1-cyclohexa-2,5-dienone]", "EC50": 18.2}
    ]},
    {"target": "Sphingosine 1-phosphate receptor 1 (Homo sapiens, UniProt P21453)", "experiment": "S1P1 agonism potentiation – cell-based, potentiator mode, 60K MLSMR set, dose response (AID 466)", "conditions": "inactive by the depositor's call", "units": {"EC50": "µM"}, "values": [
      {"smiles": "Cc1cc(C)n(-c2nc3ccccc3c(=O)n2OCCOc2ccccc2)n1", "note": "[2-(3,5-dimethyl-1-pyrazolyl)-3-(2-phenoxyethoxy)-4-quinazolinone]", "EC50": 15},
      {"smiles": "CCCCOc1ccc(S(=O)(=O)n2c(C)nc3ccccc32)cc1", "note": "[1-(4-butoxyphenyl)sulfonyl-2-methyl-benzimidazole]", "EC50": 28.9},
      {"smiles": "CS(=O)(=O)n1nc(OC(=O)c2cccc3ccccc23)cc1N", "note": "[(5-amino-1-methylsulfonylpyrazol-3-yl) naphthalene-1-carboxylate]", "EC50": 11.9},
      {"smiles": "Cc1ccc(S(=O)(=O)Nc2cccc3ncccc23)s1", "note": "[5-methyl-N-quinolin-5-ylthiophene-2-sulfonamide]", "EC50": 27.6},
      {"smiles": "CCNc1nc2c(c(=O)n(C)c(=O)n2C)n1Cc1ccc(Cl)cc1", "note": "[7-(4-chlorobenzyl)-8-(ethylamino)-1,3-dimethyl-xanthine]", "EC50": 14.4},
      {"smiles": "CCOC(=O)c1ccc2nc(NC(=O)c3ccco3)sc2c1", "note": "[2-(2-furoylamino)-1,3-benzothiazole-6-carboxylic acid ethyl ester]", "EC50": 18.7},
      {"smiles": "CCCn1c(CN2CCN(c3cccc(Cl)c3)CC2)nc2c1c(=O)n(C)c(=O)n2C", "note": "[8-[[4-(3-chlorophenyl)-1-piperazinyl]methyl]-1,3-dimethyl-7-propylpurine-2,6-dione]", "EC50": 18.8},
      {"smiles": "CCCc1cc2c(=O)c(-c3ccccn3)coc2cc1OC", "note": "[7-methoxy-6-propyl-3-(2-pyridinyl)-1-benzopyran-4-one]", "EC50": 37.1},
      {"smiles": "CCC(=O)Nc1ccc2c(c1)C(=O)N(C1CCCCC1)C2=O", "note": "[MLS000099936]", "EC50": 58},
      {"smiles": "CCOC(=O)c1ccc(NC(=O)CCc2nc(-c3ccc(Cl)cc3)no2)cc1", "note": "[4-[3-[3-(4-chlorophenyl)-1,2,4-oxadiazol-5-yl]propanoylamino]benzoic acid ethyl ester]", "EC50": 13},
      {"smiles": "Clc1ccc(-c2nc3nc4ccccc4nc3n2Cc2ccco2)cc1", "note": "[2-(4-chlorophenyl)-3-(2-furanylmethyl)imidazo[4,5-b]quinoxaline]", "EC50": 16.6},
      {"smiles": "Cc1cccc(-c2nc(C#N)c(NC3CCCCC3)o2)c1", "note": "[5-(cyclohexylamino)-2-(3-methylphenyl)-1,3-oxazole-4-carbonitrile]", "EC50": 11.8},
      {"smiles": "COc1ccc(S(=O)(=O)Cc2ccc(C(=O)N3CCN(c4ccc(Cl)cc4)CC3)o2)cc1", "note": "[MLS000120227]", "EC50": 14.7},
      {"smiles": "CC(=O)Nc1ccc(S(=O)(=O)N2CCN(CCCOc3cc(C)ccc3C)CC2)cc1", "note": "[MLS000050317]", "EC50": 17.5},
      {"smiles": "COc1cccc(-c2cc(C(=O)Nc3ccccc3SC)no2)c1", "note": "[5-(3-methoxyphenyl)-N-(2-methylsulfanylphenyl)-1,2-oxazole-3-carboxamide]", "EC50": 16}
    ]}
  ]
}
